Test results taken from patent US9353089B2, “Compositions and methods for the treatment of malaria” (Saint Louis University, priority 2013, dated 2016).
Read-outs that look alike come from different tables or passages of the source.

What was measured:
[1] = biological target: Plasmepsin-2 (PM-2; Plm II) (Plasmodium falciparum (isolate HB3), UniProt P46925); experiment: Plasmepsin-2 enzyme inhibition assay; format: biochemical
Outline: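 Enzymes activated in pH 4.5 citrate/DTT buffer, then assayed in 50 mM sodium acetate pH 4.7, 0.01% Tween-20. Compounds added before fluorogenic peptide substrate (final 20 µM); 60 min at room temperature, fluorescence Ex/Em 360/535 nm, IC50 by curve fit.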

[2] = system: Plasmodium falciparum 3D7 (CQ-sensitive); experiment: In vitro antimalarial assay (malaria SYBR Green I-based fluorescence, MSF), 3D7; format: cell-based
Outline: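 Asynchronous P. falciparum 3D7 cultures (0.5% parasitemia, 2% hematocrit) were exposed to serially diluted compounds, in quadruplicate. Growth was then quantified by SYBR Green I fluorescence after adding lysis buffer containing 0.2 μL/mL dye.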

[3] = biological target: recombinant human Cathepsin E (Homo sapiens (Human), UniProt P14091); experiment: Cathepsin E enzyme inhibition FRET assay; format: biochemical; conditions: Table 8; read-out: CatE IC50
Chain of recombinant human Cathepsin E (P14091 54-396): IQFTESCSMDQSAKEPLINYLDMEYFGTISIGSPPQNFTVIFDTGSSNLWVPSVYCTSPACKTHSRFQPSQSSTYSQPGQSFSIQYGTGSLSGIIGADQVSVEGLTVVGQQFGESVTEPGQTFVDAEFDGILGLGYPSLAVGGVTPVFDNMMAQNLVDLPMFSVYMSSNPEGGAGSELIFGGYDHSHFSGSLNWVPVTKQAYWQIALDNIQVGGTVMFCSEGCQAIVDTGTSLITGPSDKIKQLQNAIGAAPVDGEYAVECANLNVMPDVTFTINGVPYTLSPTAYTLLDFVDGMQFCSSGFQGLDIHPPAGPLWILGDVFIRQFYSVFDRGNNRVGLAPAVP
Method: (§1) The enzymatic inhibition activity assays were determined using the fluorescence resonance energy transfer (FRET) assay. The assays were performed in a 384-well plate format. […] The concentration of Cathepsin D was 20 ng/μL, and 1 ng/μL of Cathepsin E was used. CatD and CatE were activated by incubation in assay buffer (0.1 M NaOAc, 0.2 M NaCl, pH 3.5) at room temperature for 30 min. Subsequently, the rhBACE-1 substrate (R&D Systems, catalog# ES004), the Cathepsin D and Cathepsin E substrate (R&D Systems, Catalog # ES001) were added accordingly to final concentration 20 μM to initiate the reaction. After 60 min incubation at room temperature, the time-resolved fluorescence at Ex/Em=360 nm/460 nm was measured on an EnVision multilabel plate reader (Perkin-Elmer). The analytical software, GraphPad Prism 5.0 (GraphPad Software, Inc., USA) was used to generate IC50 values via non-linear regression analysis, which are reported in Tables 8-13 below as BACE1 IC50 values.

[4] = biological target: recombinant human Cathepsin D (Homo sapiens (Human), UniProt P07339); experiment: Cathepsin D enzyme inhibition FRET assay; format: biochemical; conditions: Table 8; read-out: CatD IC50
Chain of recombinant human Cathepsin D (P07339 65-412): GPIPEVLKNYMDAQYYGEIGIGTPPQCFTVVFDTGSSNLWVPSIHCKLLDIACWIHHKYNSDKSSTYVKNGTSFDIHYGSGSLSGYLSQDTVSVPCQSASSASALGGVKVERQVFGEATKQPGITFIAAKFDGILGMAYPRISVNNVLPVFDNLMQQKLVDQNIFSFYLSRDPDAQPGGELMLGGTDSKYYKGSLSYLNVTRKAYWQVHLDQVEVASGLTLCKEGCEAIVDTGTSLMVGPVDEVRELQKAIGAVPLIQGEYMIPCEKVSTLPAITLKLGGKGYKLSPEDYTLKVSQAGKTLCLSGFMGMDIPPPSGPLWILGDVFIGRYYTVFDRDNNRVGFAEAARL
Method: as §1

recombinant human BACE1 [5] = biological target: recombinant human BACE1 (Homo sapiens, UniProt P56817); experiment: β-Secretase (BACE1) enzyme inhibition FRET assay; format: biochemical
Chain of recombinant human BACE1 (Homo sapiens, UniProt P56817) (P56817 46-501 limits assumed): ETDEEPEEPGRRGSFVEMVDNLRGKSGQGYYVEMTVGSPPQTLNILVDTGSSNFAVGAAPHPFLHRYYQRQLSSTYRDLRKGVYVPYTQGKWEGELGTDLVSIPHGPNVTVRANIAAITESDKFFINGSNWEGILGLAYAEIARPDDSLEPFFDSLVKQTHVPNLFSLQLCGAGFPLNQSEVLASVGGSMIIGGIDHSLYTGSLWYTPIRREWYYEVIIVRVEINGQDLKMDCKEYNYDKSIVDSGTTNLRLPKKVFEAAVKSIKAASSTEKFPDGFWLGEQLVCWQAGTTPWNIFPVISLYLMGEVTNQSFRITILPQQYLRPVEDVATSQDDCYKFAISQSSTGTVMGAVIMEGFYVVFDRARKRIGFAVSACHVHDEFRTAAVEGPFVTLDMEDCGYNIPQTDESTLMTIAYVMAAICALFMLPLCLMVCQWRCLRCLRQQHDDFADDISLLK
Method: (§2) The enzymatic inhibition activity assays were determined using the fluorescence resonance energy transfer (FRET) assay. The assays were performed in a 384-well plate format. […] CatD and CatE were activated by incubation in assay buffer (0.1 M NaOAc, 0.2 M NaCl, pH 3.5) at room temperature for 30 min. Subsequently, the rhBACE-1 substrate (R&D Systems, catalog# ES004), the Cathepsin D and Cathepsin E substrate (R&D Systems, Catalog # ES001) were added accordingly to final concentration 20 μM to initiate the reaction. After 60 min incubation at room temperature, the time-resolved fluorescence at Ex/Em=360 nm/460 nm was measured on an EnVision multilabel plate reader (Perkin-Elmer). The analytical software, GraphPad Prism 5.0 (GraphPad Software, Inc., USA) was used to generate IC50 values via non-linear regression analysis, which are reported in Tables 8-13 below as BACE1 IC50 values.

[6] = biological target: Plasmepsin (PM-4; Plm IV) (Plasmodium falciparum (isolate 3D7), UniProt Q8IM16); experiment: Plasmepsin-4 enzyme inhibition assay; format: biochemical; conditions: Table 8
Chain of Plasmepsin (PM-4; Plm IV) (Q8IM16 122-449 limits assumed): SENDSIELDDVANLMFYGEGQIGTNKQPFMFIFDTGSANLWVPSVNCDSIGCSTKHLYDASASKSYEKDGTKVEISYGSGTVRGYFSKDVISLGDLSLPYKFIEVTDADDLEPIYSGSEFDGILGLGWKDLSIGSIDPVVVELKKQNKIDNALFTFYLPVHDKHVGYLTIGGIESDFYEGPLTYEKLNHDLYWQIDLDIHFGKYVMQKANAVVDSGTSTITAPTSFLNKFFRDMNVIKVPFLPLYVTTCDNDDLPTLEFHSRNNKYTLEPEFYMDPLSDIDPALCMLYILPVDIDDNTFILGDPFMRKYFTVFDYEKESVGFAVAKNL
Method: Plasmepsin-2 (PM-2; Plm II) and Plasmepsin (PM-4; Plm IV) expression and purification was performed following the published protocols (Istvan E S and Goldberg D E, 2005). The final purified protein was activated by diluting the protein to 0.3 mg/mL in activating buffer (0.1 M citrate pH 4.5, 0.1% Tween-20, 50 mM dithiothreitol) and incubated at room temperature for 40 min, then the activated enzyme was diluted in assay buffer (50 mM sodium acetate pH 4.7, 0.01% Tween-20). The enzymatic inhibition reaction was performed in 384 well plates with a total volume of 20 μl. 10 μl of diluted PM-2 or PM-4 enzyme was added to the 384-well plate except blank wells (blank wells add 10 μL of assay buffer) and 20 nL of serials of diluted 1000× compounds were added to the wells with 520 Echo® Liquid Handling System (Labcyte Inc.). 10 μL PM-2 peptide substrate (AnaSpec, Cat#, 62050) with assay buffer was then added to final concentration of 20 μM to start the reaction. After incubation the reaction at room temperature for 60 min, the fluorescence intensity at Ex/Em=360 nm/535 nm was measured using EnVision multilabel plate reader (Perkin-Elmer). The IC50 values were obtained using Graph Pad Prism 4 and are reported in Tables 8 and 9 below as PM-2 IC50 values.

recombinant human BACE1 [7] = experiment: β-Secretase (BACE1) enzyme inhibition FRET assay; format: biochemical
Method: as §2

[8] = 3D7, read-out: Pf 3D7 IC50, Table 8
[9] = 3D7, read-out: 3D7 IC50 (μM), Table 13
[10] = ratio of BACE1 IC50 to PM-2 IC50
[11] = 3D7, read-out: Pf 3D7 IC50 (μM), Table 11
[12] = 3D7, read-out: 3D7 IC50 (μM), Table 12
[13] = 3D7, Table 8, read-out: Pf 3D7 IC50
[14] = 3D7, Table 10, read-out: Pf3D7 IC50
[15] = 3D7, Table 13, read-out: 3D7 IC50

Chain of Plasmepsin-2 (PM-2; Plm II) (P46925 125-453 limits assumed): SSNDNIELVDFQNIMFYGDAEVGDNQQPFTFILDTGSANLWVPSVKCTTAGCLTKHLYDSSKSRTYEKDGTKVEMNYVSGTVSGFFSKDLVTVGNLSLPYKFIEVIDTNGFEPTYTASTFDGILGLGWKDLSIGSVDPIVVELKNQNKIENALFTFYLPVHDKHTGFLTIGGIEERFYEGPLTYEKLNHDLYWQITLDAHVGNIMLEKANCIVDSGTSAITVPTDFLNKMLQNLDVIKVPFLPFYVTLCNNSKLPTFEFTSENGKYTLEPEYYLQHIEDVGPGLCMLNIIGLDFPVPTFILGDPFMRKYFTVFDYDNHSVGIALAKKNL

Compound	IC50 ([1]; Table 8, read-out: PM-II IC50)	IC50 [2, 8]	IC50 [3]	IC50 [4]	IC50 (recombinant human BACE1 [5]; Table 8, read-out: BACE IC50)	IC50 [6]	IC50 ([1]; Table 12, read-out: PM-2 IC50)	IC50 ([1]; Table 13, read-out: PM-2 IC50)	IC50 [2, 9]	BACE1/PM2 Ratio (recombinant human BACE1 [7]; [10])	IC50 (recombinant human BACE1 [5]; Table 12, read-out: BACE1 IC50)	IC50 (recombinant human BACE1 [5]; Table 13, read-out: BACE1 IC50)	IC50 [2, 11]	IC50 [2, 12]	BACE1/PM2 Ratio (recombinant human BACE1 [7])	IC50 [2, 13]	IC50 [2, 14]	IC50 [2, 15]
CCC(CN1C(=N)NC(c2ccccc2)(c2ccccc2)C1=O)c1ccccc1 (centres unmarked) [drawing 192]	12 nM	2.76 µM	99 nM	385 nM	2300 nM	45 nM	–	–	–	–	–	–	–	–	–	–	–	–
COc1cccc(-c2cccc(C3(C4CC4)NC(=N)N(C4CCCCC4)C3=O)c2)c1 (centres unmarked) [Example 328, 3-cyclohexyl-5-cyclopropyl-2-imino-5-[3-(3-methoxyphenyl)-phenyl]imidazolidin-4-one]	–	–	–	–	–	–	104 nM	104 nM	0.746 µM	67	~7000 nM	~6800 nM	–	–	–	–	–	–
COc1cccc(C2(c3cccc(OC)c3)NC(=N)N(C3CCCCC3)C2=O)c1 [Example 128, 3-cyclohexyl-2-imino-5,5-bis(3-methoxyphenyl)-imidazolidin-4-one]	36 nM	0.768 µM	1860 nM	1100 nM	28900 nM	41 nM	–	35.9 nM	0.768 µM	–	–	28900 nM	0.768 µM	–	–	–	–	–
COc1cccc(-c2cccc(C3(c4ccccc4)NC(=N)N(C4CCOCC4)C3=O)c2)c1 (centres unmarked) [Example 324, 2-imino-5-[3-(3-methoxyphenyl)-phenyl]-3-(oxan-4-yl)-5-phenylimidazolidin-4-one]	–	–	–	–	–	–	11.3 nM	11.3 nM	1.46 µM	218	2460 nM	2460 nM	–	1.46 µM	–	–	–	–
COc1cccc(-c2cccc(C3(c4ccccc4)NC(=N)N(C4CCCCC4)C3=O)c2)c1 (centres unmarked) [Example 326, 3-cyclohexyl-2-imino-5-[3-(3-methoxyphenyl)phenyl]-5-phenylimidazolidin-4-one]	–	–	–	–	–	–	33.1 nM	33.1 nM	1.34 µM	~270	~9000 nM	~8900 nM	–	1.34 µM	–	–	–	–
COc1cccc(-c2cccc(C3(C4CC4)NC(=N)N(C4CCOCC4)C3=O)c2)c1 (centres unmarked) [Example 329, 5-cyclopropyl-2-imino-5-[3-(3-methoxyphenyl)-phenyl]-3-(oxan-4-yl)imidazolidin-4-one]	–	–	–	–	–	–	83.1 nM	83.1 nM	0.621 µM	–	~4000 nM	~3600 nM	–	0.746 µM	48	–	–	–
COc1ccc(C2(c3cccc(-c4cccnc4)c3)NC(=N)N(C3CCCCC3)C2=O)cc1 (centres unmarked) [Example 171, 3-cyclohexyl-2-imino-5-(4-methoxyphenyl)-5-[3-(pyridin-3-yl)phenyl]-imidazolidin-4-one]	7 nM	0.595 µM	4010 nM	~14900 nM	~7150 nM	7 nM	–	6.97 nM	0.595 µM	–	–	~7150 nM	0.595 µM	–	–	–	–	–
COc1ccc(C2(c3ccc(OC)cc3)NC(=N)N(C3CCNCC3)C2=O)cc1 [Example 207, 2-imino-5,5-bis(4-methoxyphenyl)-3-(piperidin-4-yl)-imidazolidin-4-one]	505 nM	–	–	–	–	192 nM	–	505 nM	–	–	–	–	–	–	–	> 5 µM	> 5 µM	> 5 µM
COc1ccc(C2(c3ccc(OC)cc3)NC(=N)N(C3CCN(C)CC3)C2=O)cc1 [Example 166, 2-imino-5,5-bis(4-methoxyphenyl)-3-(1-methylpiperidin-4-yl)imidazolidin-4-one]	35 nM	–	–	–	–	109 nM	–	34.7 nM	–	–	–	–	–	–	–	0.697 µM	0.697 µM	0.697 µM
